Source: the supplement of paper PMC10307832

Each cell line was assayed with COC1=CC=C(C=C1)CN2C=CC3=C2C=C(C=C3)C(=O)NO + C[C@@H](Oc1cc(-c2cnn(C3CCNCC3)c2)cnc1N)c1c(Cl)ccc(F)c1Cl [Crizotinib] (partner 1 µM) (assay: relative viability (nuclei count vs DMSO), 5 days (fraction); higher = more cells survive). Details: first compound 0.08 µM.
Method in brief: (§1)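 Relative viability divides the nuclei count in treated wells by that in vehicle wells. Lung cancer cell lines were seeded in 1536-well plates, dosed by pin tool the next day, and fixed and stained after 5 days in one step with final 0.05% Triton X-100, 1% formaldehyde and 1 ug/ml Hoechst. Dosing was a single drug or a fixed anchor-drug dose plus five library-drug doses (not always all listed) in √10 steps, and values are medians of duplicate plates imaged at 4×.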

Cell Line | relative viability
NCI-H2405 | 0.649
SK-LU-1 | 0.929
NCI-H1437 | 0.661
NCI-H596 | 1.05
HCC-15 | 0.616
NCI-H460 | 0.774
EMC-BAC-2 | 0.224
IA-LM | 0.618
NCI-H2009 | 1.02
NCI-H520 | 0.321
EKVX | 0.767
NCI-H1299 | 0.947
NCI-H1650 | 0.902
EPLC-272H | 0.825
PC-14 | 0.675
LXF-289 | 0.317
LCLC-103H | 1.1
NCI-H1703 | 0.158
Calu-6 | 0.433
NCI-H441 | 1.25
NCI-H2170 | 0.938

Same assay, conditions: first compound 0.253 µM

Cell Line | relative viability
LU99A | 0.573
NCI-H1975 | 1.04
H3255 | 0.933
NCI-H2023 | 0.586
NCI-H2405 | 0.865
SK-LU-1 | 1.17
NCI-H1734 | 0.678
NCI-H1437 | 0.961
ABC-1 | 1.3
NCI-H596 | 0.961
HCC-15 | 0.805
NCI-H460 | 0.959
EMC-BAC-2 | 0.828
IA-LM | 0.806
NCI-H2009 | 0.993
COR-L 105 | 0.847
NCI-H520 | 0.834

Cell Line | relative viability
NCI-H358 | 0.645
HCC-78 | 0.373
EKVX | 0.762
EBC-1 | 0.183
NCI-H1299 | 0.978
NCI-H1650 | 0.982
EPLC-272H | 0.906
LK-2 | 0.256
PC-14 | 0.898
LXF-289 | 0.827
A549 | 0.767
LCLC-103H | 0.94
NCI-H1703 | 0.552
ChaGo-K-1 | 1.24
Calu-6 | 0.759
NCI-H441 | 0.835
NCI-H2170 | 1.19

Same assay, conditions: first compound 0.8 µM

Cell Line | relative viability
LU99A | 0.541
NCI-H1975 | 0.955
H3255 | 0.88
NCI-H2023 | 0.728
NCI-H2405 | 0.87
SK-LU-1 | 0.992
NCI-H1734 | 0.683
NCI-H1437 | 0.993
ABC-1 | 1.17
NCI-H596 | 0.963
HCC-15 | 0.919
NCI-H460 | 0.846
EMC-BAC-2 | 0.746
IA-LM | 0.834
NCI-H2009 | 0.995
COR-L 105 | 0.714
NCI-H520 | 0.776

Cell Line | relative viability
NCI-H358 | 0.546
HCC-78 | 0.345
EKVX | 1.16
EBC-1 | 0.201
NCI-H1299 | 0.967
NCI-H1650 | 1.05
EPLC-272H | 1.08
LK-2 | 0.258
PC-14 | 0.908
LXF-289 | 0.827
A549 | 0.855
LCLC-103H | 1.15
NCI-H1703 | 0.619
ChaGo-K-1 | 1.06
Calu-6 | 0.773
NCI-H441 | 0.862
NCI-H2170 | 1.17

Same assay, conditions: first compound 2.53 µM

Cell Line | relative viability
LU99A | 0.562
NCI-H1975 | 0.948
H3255 | 0.833
NCI-H2023 | 0.652
NCI-H2405 | 0.925
SK-LU-1 | 1.01
NCI-H1734 | 0.6
NCI-H1437 | 0.989
ABC-1 | 1.31
NCI-H596 | 0.868
HCC-15 | 0.787
NCI-H460 | 0.882
EMC-BAC-2 | 0.708
IA-LM | 1.02
NCI-H2009 | 0.967
COR-L 105 | 0.775
NCI-H520 | 0.723

Cell Line | relative viability
NCI-H358 | 0.597
HCC-78 | 0.342
EKVX | 0.891
EBC-1 | 0.179
NCI-H1299 | 0.943
NCI-H1650 | 0.915
EPLC-272H | 0.867
LK-2 | 0.255
PC-14 | 0.924
LXF-289 | 0.803
A549 | 0.617
LCLC-103H | 0.984
NCI-H1703 | 0.637
ChaGo-K-1 | 1.09
Calu-6 | 0.894
NCI-H441 | 0.787
NCI-H2170 | 1.26

Same assay, conditions: first compound 8 µM

Cell Line | relative viability
LU99A | 0.553
NCI-H1975 | 0.871
H3255 | 0.787
NCI-H2023 | 0.59
NCI-H2405 | 0.819
SK-LU-1 | 0.749
NCI-H1734 | 0.652
NCI-H1437 | 0.939
ABC-1 | 1.12
NCI-H596 | 1.01
HCC-15 | 0.814
NCI-H460 | 0.917
EMC-BAC-2 | 0.687
IA-LM | 0.694
NCI-H2009 | 1.06
COR-L 105 | 0.434
NCI-H520 | 0.736

Cell Line | relative viability
NCI-H358 | 0.395
HCC-78 | 0.344
EKVX | 0.934
EBC-1 | 0.181
NCI-H1299 | 0.959
NCI-H1650 | 0.693
EPLC-272H | 0.896
LK-2 | 0.226
PC-14 | 0.809
LXF-289 | 0.793
A549 | 0.63
LCLC-103H | 1.02
NCI-H1703 | 0.72
ChaGo-K-1 | 0.926
Calu-6 | 0.71
NCI-H441 | 0.597
NCI-H2170 | 1.12

The cell lines below were run with COC1=CC=C(C=C1)CN2C=CC3=C2C=C(C=C3)C(=O)NO + C[C@]1(O)C[C@@H](c2nc(-c3ccc4ccc(-c5ccccc5)nc4c3)c3c(N)nccn32)C1 [Linsitinib] (partner 1 µM) in the same assay as above. Details: first compound 0.08 µM.
Method in brief: as §1

Cell Line | relative viability
NCI-H1975 | 0.929
H3255 | 0.853
NCI-H2023 | 0.576
